Test results published in patent US5034531A, “Fused polycyclic pyranyl compounds as antiviral agents” (priority 1988, dated 1991).
In brackets after ≈: the same amount, converted by molar mass.

The molecules below were run on HSV-2 (assay: Transient expression assay: inhibition of HSV replication (HSV-2-induced β-galactosidase expression from HSV-1 TK promoter/Lac Z plasmid pON 245 in HeLa cells)). Details: Human alphaherpesvirus 2, HeLa, 24 h, read-out: IC50-values for Inhibition of HSV replication.
Format: cell-based, Herpes simplex virus HSV-2 (ATCC VR-540)
Experimental: The following example illustrates the activities of various compounds for inhibiting beta-galactosidase.
Transient Expression Assay
Herpes simplex virus (HSV) is grown and titered on Vero cells, a standard cell line.
Plasmid pON 245 (constructed by Ed Mocarski at Stanford University, Stanford California) is used for the assay. This plasmid contains the HSV-1 thymidine kinase (TK) promoter located immediately 5' of the E. coli Lac Z gene and controls transcription from the bacterial gene in transient assays. Plasmids (22 μg/10^6 cells) are introduced into standard HeLa cells by DEAE-dextran-mediated transfection. DEAE-dextran is an electropositivity charged polymer which is a diethylamino ethyl ether of dextran. Forty-eight hours after transfection, cells are infected with HSV-2 (American Type Collection Culture (ATCC) VR-540) (multiplicity of infection=5 plaque-forming units per cell). Twenty-four hours after viral infection, levels of β-galactosidase in cells are assayed by incubation in the presence of 4-methylumbelliferyl-β-D-galactoside for 2 hours on a microfluorimeter after addition of 0.1 M glycine buffer, pH=10.3. An inhibitory concentration (IC50 value), for example, of 8 μg/ml indicates the amount of compound which reduces maximal β-galactosidase expression by 50 percent. The inhibition of expression of β-galactosidase activity indicates the inhibition of viral replication at events prior to or including […] kinase (TK) expression by HSV-2.
`O=c1c2c(oc3ccccc13)-c1ccccc1CCC2` gave an IC50 of 8 µg/mL (≈ 30.5 µM).
For `O=c1c2c(oc3ncccc13)-c1ccccc1CCC2`, the IC50 was > 25 µg/mL.
For `O=c1c2c(oc3ncccc13)CCc1ccccc1-2`, the IC50 was 16 µg/mL (≈ 64.2 µM).
Molecule `O=c1c(-c2ccccc2)coc2ncc(Br)cc12` has an IC50 of 10 µg/mL (≈ 33.1 µM).
